pIC50: −log10 of the molar value. Where two headings read alike, the source gives them in different places.
What was measured:
[1] = biological target: human recombinant FAAH (Homo sapiens (Human), UniProt O00519); assay: In vitro inhibition of human recombinant FAAH activity (Cayman FAAH inhibitor screening kit, AMC arachidonoyl amide hydrolysis); type: biochemical
Description: In brief, FAAH hydrolyzes AMC arachidonoyl amide resulting in the release of the fluorescent product, while the inhibitor will inhibit the FAAH activity and thus reduce the fluorescent signal.

[2] = biological target: human recombinant MAGL (Homo sapiens (Human), UniProt Q99685); assay: In vitro inhibition of human recombinant MAGL activity (Cayman inhibitor screening kit, 4-nitrophenylacetate hydrolysis); type: biochemical
human recombinant MAGL, sequence (Q99685 whole entry): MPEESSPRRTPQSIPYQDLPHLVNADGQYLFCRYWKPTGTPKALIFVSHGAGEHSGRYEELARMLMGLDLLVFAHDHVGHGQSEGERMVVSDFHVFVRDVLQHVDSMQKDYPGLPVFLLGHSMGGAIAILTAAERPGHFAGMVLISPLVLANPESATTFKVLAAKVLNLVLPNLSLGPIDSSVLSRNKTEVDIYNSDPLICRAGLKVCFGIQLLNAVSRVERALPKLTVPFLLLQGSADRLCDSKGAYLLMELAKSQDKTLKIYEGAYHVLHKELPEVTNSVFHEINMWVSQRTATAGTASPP
Description: The inhibitory effect of the synthetic chemicals on activity of human recombinant MAGL was studied using commercial inhibitor screening kit (Cayman Chemical). […] The absorbance of the yellow product can be analyzed using the plate reader. […]

[3] = human recombinant MAGL, read-out: Inhibition on MAGL activity (IC50)

human recombinant FAAH, sequence (O00519 whole entry): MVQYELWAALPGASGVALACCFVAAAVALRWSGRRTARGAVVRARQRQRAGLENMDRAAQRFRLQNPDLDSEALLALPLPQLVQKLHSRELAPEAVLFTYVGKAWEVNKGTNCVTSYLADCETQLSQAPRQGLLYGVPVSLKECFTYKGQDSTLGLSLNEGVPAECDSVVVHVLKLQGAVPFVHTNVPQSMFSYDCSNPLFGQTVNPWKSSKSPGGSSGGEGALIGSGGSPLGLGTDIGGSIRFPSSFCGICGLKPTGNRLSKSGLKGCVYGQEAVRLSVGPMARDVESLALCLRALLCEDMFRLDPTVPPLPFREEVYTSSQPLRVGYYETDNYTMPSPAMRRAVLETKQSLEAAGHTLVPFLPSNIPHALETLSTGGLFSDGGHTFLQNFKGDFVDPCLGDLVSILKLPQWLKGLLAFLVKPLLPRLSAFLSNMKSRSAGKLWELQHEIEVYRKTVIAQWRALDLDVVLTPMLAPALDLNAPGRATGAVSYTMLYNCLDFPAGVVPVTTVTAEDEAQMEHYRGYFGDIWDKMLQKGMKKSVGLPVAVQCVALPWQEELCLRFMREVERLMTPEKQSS

| pIC50 [1] | pIC50 [2, 3] | Structure (SMILES) | pIC50 [2] |
| --- | --- | --- | --- |
| 5.00 to 6.00 | 8.00 to 9.00 | N#Cc1ncn(C(=O)N2CCCC(=C(c3ccc4c(c3)COCO4)c3ccc4c(c3)COCO4)CC2)n1 [Example 128, 1-(4-(bis(4H-benzo[d][1,3]dioxin-6-yl)methylene)azepane-1-carbonyl)-1H-1,2,4-triazole-3-carbonitrile] | – |
| 6.98 | < 4.30 | O=C(Nc1cnccc1Cl)N1CCN(Cc2ccc3c(c2)OC(F)(F)O3)CC1 [JNJ-42165279, reference compound] | – |

Further lines, the compound ahead of its results:

| Structure (SMILES) | pIC50 [1] | pIC50 [2, 3] | pIC50 [2] |
| --- | --- | --- | --- |
| N#Cc1ncn(C(=O)N2C3CCC2CC(=C(c2ccc4c(c2)COCO4)c2ccc4c(c2)COCO4)C3)n1 [Example 127, 1-(3-(bis(4H-benzo[d][1,3]dioxin-6-yl)methylene)-8-azabicyclo[3.2.1]octane-8-carbonyl)-1H-1,2,4-triazole-3-carbonitrile] | < 4.30 | – | 8.00 to 9.00 |
| N#Cc1ncn(C(=O)N2CCC(C(c3ccc4c(c3)COCO4)c3ccc4c(c3)COCO4)CC2)n1 [Example 129, 1-(4-(bis(4H-benzo[d][1,3]dioxin-6-yl)methyl)piperidine-1-carbonyl)-1H-1,2,4-triazole-3-carbonitrile] | 5.00 to 6.00 | 8.00 to 9.00 | – |
| N#Cc1ncn(C(=O)N2C3CCC2CC(C(c2ccc4c(c2)COCO4)c2ccc4c(c2)COCO4)C3)n1 (stereo not drawn) [Example 130, 1-(3-(bis(4H-benzo[d][1,3]dioxin-6-yl)methyl)-8-azabicyclo[3.2.1]octane-8-carbonyl)-1H-1,2,4-triazole-3-carbonitrile] | < 4.30 | – | 8.00 to 9.00 |
| O=C(Nc1cccnn1)N1CCC(=Cc2cccc(Oc3ccc(C(F)(F)F)cn3)c2)CC1 [PF-04457845, reference compound] | 8.72 | < 5.00 | – |

Reference: patent US12378231B2, “Small molecules as monoacylglycerol lipase (MAGL) inhibitors, compositions and use thereof” (APOGEE PHARMACEUTICALS, INC., priority 2023, dated 2025)
